Data set [1] can be described thus: Stability in Simulated Gastric Fluid (SGF). The arrangement: key: % parent compound remaining relative to 0-minute sample. In kind it is in vitro ADME. The method, boiled down: (§1)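 Each compound is spiked to a final 2 μg/mL into SGF with pepsin (pH 1.2) and into SIF with pancreatin (pH 6.8). Samples shake at 37° C, aliquots are taken between 0 and 60 minutes, precipitated with acetonitrile and analysed by LC-MS/MS. Degradation half-life is derived from the natural-log plot where time points allow.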

A further data set is described as follows: Plasma Stability. Format: in vitro ADME, human. The method, boiled down:
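Parent compound quantified by LC-MS/MS after acetonitrile precipitation, reported as percent of control remaining (triplicate). Incubation: 1 hour, 37° C, fresh human plasma, compound at 1 μM.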

Data set [2] can be described thus: Stability in Simulated Intestinal Fluid (SIF). Format: in vitro ADME. The arrangement: key: % parent compound remaining relative to 0-minute sample. The method, boiled down: as §1
The nature of data set [3]: Caco-2 Permeability Assay. In kind it is in vitro ADME, human. The note with it: human. The method, boiled down:
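Bidirectional transport at 37 °C for 90 min, 10 μM donor concentration, with or without Pgp inhibitor, across 21-day Caco-2 monolayers with TEER >600 […] in HEPES-buffered HBSS, pH 7.4. LC-MS/MS of donor and receiver samples gives Papp, B→A/A→B efflux ratio and mass recovery.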

The mark [4] stands for this setting: % remaining at 1 h in simulated gastric fluid, the 17th table.
Setting [5] is: % remaining at 1 h in human plasma, the 17th table.
Where [6] appears, read: % remaining at 1 h in simulated intestinal fluid, the 17th table.
The mark [7] stands for this setting: Caco-2, pH 7.4, Caco-2 monolayer, the 17th table.
[8] abbreviates: simulated gastric fluid, at 1 h.
Setting [9] is: simulated intestinal fluid, at 1 h.
Where [10] appears, read: Caco-2, pH 7.4, Caco-2 monolayer.

Broadly, the Papp is a coefficient for how fast a substance crosses the barrier.

On to `CC(=O)OCc1ccccc1N(C)C(=O)OCn1ccc2c1c(=O)nc(S)n2CCOC(C)C` [Example 222], for which the SGF in data set [1] (setting [4]) was 98% remaining. Besides, the “human Plasma stability” value in “Plasma Stability” (setting [5]) amounted to 22% remaining. Also, the SIF in data set [2] (setting [6]) is reported as 88% remaining. In data set [3] (setting [7]), this compound yielded a Papp at 90 min, 10 µM of 2.05 ×10⁻⁶ cm/s.

Regarding `CC(C)NC(=O)n1ccc2c1c(=O)[nH]c(=S)n2CCOC(C)C` [Example 223], in data set [1] (setting [4]), the SGF was 87% remaining. For the same compound, the “human Plasma stability” value in the data set “Plasma Stability” (setting [5]) is on record as 99% remaining. Further, the SIF in data set [2] (setting [6]) was 70% remaining. The compound also registered a Papp at 90 min, 10 µM in data set [3] (setting [7]) of 37 ×10⁻⁶ cm/s.

With `CCCCNC(=O)n1ccc2c1c(=O)[nH]c(=S)n2CCOC(C)C` [Example 224], the SGF in data set [1] (setting [4]) was 83% remaining. Besides, the “human Plasma stability” value in the data set “Plasma Stability” (setting [5]) amounted to 89% remaining. For the same compound, the SIF in data set [2] (setting [6]) is listed as 100% remaining. The compound further gave a Papp at 90 min, 10 µM in data set [3] (setting [7]) of 12.6 ×10⁻⁶ cm/s.

Take `CCCNC(=O)n1ccc2c1c(=O)[nH]c(=S)n2CCOC(C)C` [Example 225]: in data set [1] (setting [4]), the SGF is given as 98% remaining. Also, the “human Plasma stability” value in the data set “Plasma Stability” (setting [5]) is reported as 99% remaining. The SIF in data set [2] (setting [6]) was 78% remaining. The compound further came in with a Papp at 90 min, 10 µM in data set [3] (setting [7]) of 24.3 ×10⁻⁶ cm/s.

Turning to `CCC(C)NC(=O)n1ccc2c1c(=O)[nH]c(=S)n2CCOC(C)C` (stereo not shown) [Example 226], the SGF in data set [1] (setting [4]) was 91% remaining. Also, in “Plasma Stability” (setting [5]), the “human Plasma stability” value was found to be 97% remaining. For the same compound, in data set [2] (setting [6]), the SIF was 83% remaining. Moreover, the Papp at 90 min, 10 µM in data set [3] (setting [7]) is 35.1 ×10⁻⁶ cm/s.

As for `CC(C)OCCn1c(=S)[nH]c(=O)c2c1ccn2C(=O)Nc1ccccc1` [Example 227], in data set [1] (setting [4]), the SGF is recorded as 100% remaining. Also, in the data set “Plasma Stability” (setting [5]), the “human Plasma stability” value was determined as 99% remaining. The SIF in data set [2] (setting [6]) is 95% remaining. Also, in data set [3] (setting [7]), the apparent permeability (Papp) at 90 min, 10 µM came out at 1.67 ×10⁻⁶ cm/s.

As to `CC(C)OCCn1c(=S)[nH]c(=O)c2c1ccn2C(=O)NCc1ccccc1` [Example 228], the SGF in data set [1] (setting [4]) is 95% remaining. Besides, in the data set “Plasma Stability” (setting [5]), the “human Plasma stability” value was found to be 99% remaining. Further, in data set [2] (setting [6]), the SIF was 100% remaining. The Papp at 90 min, 10 µM in data set [3] (setting [7]) was 10.3 ×10⁻⁶ cm/s.

On to `CC(C)OCCn1c(=S)[nH]c(=O)c2c1ccn2C(=O)NC(C)(C)C` [Example 229, N-tert-butyl-4-oxo-1-[2-(propan-2-yloxy)ethyl]-2-sulfanylidene-1H,2H,3H,4H,5H-pyrrolo[3,2-d]pyrimidine-5-carboxamide], for which the SGF in data set [1] (% remaining at 1 h, SGF with pepsin pH 1.2, 2 μg/mL, 37° C.) is reported as 98%. Also, in “Plasma Stability” (% remaining at 1 h, human plasma, 1 μM, 37° C.), the “human Plasma stability” value is 96%. For the same compound, the SIF in data set [2] (% remaining at 1 h, SIF with pancreatin pH 6.8, 2 μg/mL, 37° C.) is reported as 76%. The apparent permeability (Papp) at 90 min, 10 µM in data set [3] (Caco-2, pH 7.4, donor 10 μM, 90 minutes, 37° C., direction not given) amounted to 26.4 ×10⁻⁶ cm/s.

As for `CCOC(=O)n1ccc2c1c(=O)[nH]c(=S)n2CCOC(C)C` [Example 230], in data set [1] (setting [8]), the SGF is listed as 99% remaining. For the same compound, the “human Plasma stability” value in the data set “Plasma Stability” (human plasma, at 1 h) stood at 2% remaining. Moreover, the SIF in data set [2] (setting [9]) is given as 33% remaining. This compound displayed a Papp at 90 min, 10 µM in data set [3] (setting [10]) of 0.456 ×10⁻⁶ cm/s.

Consider `CC(C)OCCn1c(=S)[nH]c(=O)c2c1ccn2C(=O)OC(C)C` [Example 231], for which the SGF in data set [1] (setting [8]) is listed as 100% remaining. The “human Plasma stability” value in “Plasma Stability” (human plasma, at 1 h) came out at 0% remaining. Also, in data set [2] (setting [9]), the SIF is on record as 40% remaining. The Papp at 90 min, 10 µM in data set [3] (setting [10]) is 3.63 ×10⁻⁶ cm/s.

Regarding `CC(C)COC(=O)n1ccc2c1c(=O)[nH]c(=S)n2CCOC(C)C` [Example 232], in data set [1] (setting [8]), the SGF was 98% remaining. Further, the “human Plasma stability” value in “Plasma Stability” (human plasma, at 1 h) is recorded as 2% remaining. In addition, in data set [2] (setting [9]), the SIF is 3% remaining. The Papp at 90 min, 10 µM in data set [3] (setting [10]) stood at 0.256 ×10⁻⁶ cm/s.

Regarding `COC(=O)n1ccc2c1c(=O)[nH]c(=S)n2CCOC(C)C` [Example 233], in data set [1] (setting [8]), the SGF is recorded as 98% remaining. Further, the “human Plasma stability” value in “Plasma Stability” (human plasma, at 1 h) was determined as 2% remaining. In data set [2] (setting [9]), the SIF is recorded as 70% remaining. For the same compound, the apparent permeability coefficient (Papp) at 90 min, 10 µM in data set [3] (setting [10]) worked out at 0.314 ×10⁻⁶ cm/s.

Take `CC(C)OCCn1c(=S)[nH]c(=O)c2c1ccn2COC(=O)Oc1cccc(F)c1` [Example 234]: in data set [1] (setting [8]), the SGF is 34% remaining. The “human Plasma stability” value in “Plasma Stability” (human plasma, at 1 h) is 2% remaining. Besides, the SIF in data set [2] (setting [9]) is on record as 8% remaining. For the same compound, the Papp at 90 min, 10 µM in data set [3] (setting [10]) was < 0.33 ×10⁻⁶ cm/s.

The values are drawn from patent publication US20240067651A1 (Biohaven Therapeutics Ltd., priority 2019, published 2024).
